Reference: patent US20190083498A1, “THERAPIES FOR HEMATOLOGIC MALIGNANCIES” (GILEAD CALISTOGA LLC, priority 2008, published 2019)

How the values were obtained:
[1] = tested on: p110δ-negative cell lines; experiment: Growth inhibition of p110δ-negative MM cell lines, MTT; format: cell-based, human; settings: 48 h
[2] = tested on: T-ALL and B-ALL leukemic cell lines; experiment: Viability of ALL cell lines, AlamarBlue; format: cell-based; settings: 48 hours
Protocol: Viability assays of cell lines were performed using the AlamarBlue assay (Invitrogen). Cells (1×10^6 per well) in a volume of 100 μL were placed in a 96-well flat-bottom plate and the compound of formula I (100 μL per well at 2× final concentration) or medium alone was added to the plates. All were performed in quadruplicate. Cells were incubated for fixed times (48 hours). After the incubation, 10 μL AlamarBlue® was added to each well. Cells were incubated for 4 hours and the optical density at 530-560 nm was obtained using a SpectraMax® M5 plate reader 2001. Cell viability was expressed as a percentage of absorption between treated cells/control sample.

CCRF-SB cells = experiment: Cell cycle FACS analysis, propidium iodide; format: cell-based; settings: CCRF-SB ALL cell line
Protocol: Representative fluorescence-activated cell sorting (FACS) analysis of propidium iodide-stained CCRF-SB cells under normal growth conditions, and growth in the presence of the compound of formula I. The average percentage of cells in G0-G1, S, and G2-M phases is calculated in the table below the histographs.

[3] = Blood glucose and insulin levels of a subject; format: in vivo, human
[4] = tested on: CLL cells with or without StromaNKTert; experiment: CLL cell viability/apoptosis in stromal co-culture, Annexin V/PI FACS; format: cell-based, human; settings: 24 hours
Protocol: CLL cell and stromal cell co-cultures: CLL cells were cultured under standardized conditions on stromal cell lines or primary NLC. Briefly, stromal cells were seeded one day prior to each experiment onto 24-well plates (Corning Life Sciences) at a concentration of 3×10^5 cells/mL/well and incubated at 37° C. in 5% CO2. Stromal cell confluence was confirmed by phase contrast microscopy, and CLL cells were then added onto the stromal cell layer at a concentration of 3×10^6 cells/mL. Cultures were then treated with compounds for the specified time periods. CLL cells were removed for analysis by gentle pipetting with media, and were then washed in PBS prior to analysis. A 24-hour co-culture time point was used unless otherwise indicated.
Cell viability testing and reagents: CLL cell viability was determined by analysis of Annexin V-FITC (BD Biosciences, San Diego, Calif.) and Propidium Iodine (PI) (Sigma) by FACS.
To determine whether PI3K inhibition increased the sensitivity of stroma-exposed CLL cells by increasing priming, PB-derived CLL cells cultured with or without StromaNKTert cells for 24 hours and were examined using Annexin-PI and BH3 profiling. […] Stromal co-culture of four CLL patient samples led to protection from apoptosis in untreated cells.

leukemia cell lines = experiment: Apoptosis in leukemia cell lines, Annexin V-FITC/7AAD; format: cell-based; settings: 1 μM or 10 μM; 24 hrs
Protocol: The percentage of apoptotic cells was determined by Annexin V-FITC/7AAD staining.

INA-6 cells = experiment: AKT and ERK pathway phosphorylation, immunoblotting; format: cell-based, human
Text: Whole-cell lysates were subjected to sodium dodecyl sulfate-polyacrylamide gel electrophoresis (SDS-PAGE) separation, transferred to Pure Nitrocellulose membranes (Bio-Rad Laboratories, Hercules, Calif.), and immunoblotted with anti-AKT, phospho(p)-AKT (Ser473, Thr 308), ERK1/2 , P-ERK1/2, P-PDK1, STAT, P-STAT, P-FKRHL, P-70S6K, LC3, and PI3K/p110 α Abs (Cell Signaling Danvers, Mass.); anti-p110β, PI3K/p110δ, Glyceraldehyde 3-phosphate dehydrogenase (GAPDH), α-tubulin, and actin Abs (Santa Cruz Biotechnology, Calif.); and anti-p110 γ Ab (Alexis, San Diego, Calif.): and anti-LC3 Ab (Abgent, San Diego, Calif.).
Actin Ab was used as a loading control. […] Whole cell lysates were subjected to immunoblotting using AKT, P-AKT (Ser473 and Thr308), ERK1/2, P-ERK1/2, P-PDK1, and P-FKRHL antibodies. α-tubulin is used as a loading control.

over 350 protein kinases = experiment: Ambit KINOMEscan kinome-wide protein kinase screen; format: binding; settings: 10 μM
Text: Examples of some kinases in the screen are shown below in Table 3.

patient MM cells = experiment: Viability of patient MM cells, MTT; format: cell-based, human; settings: 48 h
Text: Patient MM and BM cells were obtained from BM samples after informed consent was obtained per the Declaration of Helsinki and approval by the Institutional Review Board of the Dana-Farber Cancer Institute (Boston, Mass.). BM mononuclear cells were separated using Ficoll-Paque™ density sedimentation, and plasma cells were purified (>95% CD138+) by positive selection with anti-CD138 magnetic activated cell separation micro beads (Miltenyi Biotec, Auburn, Calif.). Tumor cells were also purified from the BM of MM patients using the RosetteSep negative selection system (StemCell Technologies, Vancouver, BC, Canada).
Data represent mean ±SD viability, assessed by MTT assay of triplicate cultures, expressed as percentage of untreated controls.

[5] = human, in vivo
Protocol: This example provides data relating to the concentration of the compound of formula I in the blood of a healthy human subject on day 7. The concentration was monitored over a period of 12 hours, after oral administration of 50, 100, or 200 mg BID of the compound of formula I on day 7 of the study. FIG. 11 follows the plasma concentration of the drug over a period of 12 hours from administration.
In addition, single dose studies wherein 17-400 mg of the compound of formula I was administered in healthy volunteers was carried out.
Table 1, below, provides an overview of the subjects in the study, wherein either a singe dose (SD) or multiple dose (MD) of the compound of formula I is administered to a subject at varying amounts. The “n” values refer to the number of subjects in each group.

HuVECs = experiment: HuVEC viability, MTT; format: cell-based, human; settings: 0-20 μM, 48 h
Text: Data shown are mean ±SE of triplicate wells from a representative experiment.

LB and INA-6 MM cells = experiment: Growth inhibition of p110δ-positive MM cell lines, MTT; format: cell-based, human; settings: 48 h

In the case of CC[C@H](Nc1ncnc2[nH]cnc12)c1nc2cccc(F)c2c(=O)n1-c1ccccc1 [Compound I, 5-fluoro-3-phenyl-2-[1-(9H-purin-6-ylamino)-propyl]-3H-quinazolin-4-one], the “cytotoxicity in p110δ-negative cell lines” value [1] is reported as “minimal cytotoxicity”, the “cellular viability of ALL cell lines” value [2] is reported as “significant reduction in cell viability” and the “cellular viability of ALL cell lines” value ([2]; listed as compound I) is reported as “substantial reduction in cellular viability”. For the same compound, the cell cycle effect (CCRF-SB cells) was “G0/G1 cell cycle arrest”, the insulin levels ([3]; after 7 days of treatment) was “remained within the normal range” and the blood glucose concentration ([3]; after 10 days, highest dosage (50-200 mg BID)) was “remained steady”. For the same compound, the “CLL cell viability in stromal co-culture, single agent” value ([4]; 10 μM alone, two patients) was “profound stroma-mediated resistance”, the “apoptosis versus control in the absence of stroma” value ([4]; four CLL patient samples) was “induce more apoptosis than the control” and the “apoptosis versus control in the presence of stroma” value ([4]; four CLL patient samples) was “induce significantly more apoptosis than the control”. The “apoptosis in leukemia cell lines” value (leukemia cell lines) was “induces apoptosis”, the “phosphorylation of upstream PDK-1 and downstream FKHRL” value (INA-6 cells; INA-6 and LB MM cells, 0-6 hours) was “significantly inhibited” and the “phosphorylation of AKT and ERK1/2” value (INA-6 cells; p110δ positive INA-6 cells) was “significantly blocked”. For the same compound, the “off target activity in kinome-wide protein kinase screen” value (over 350 protein kinases) was “failed to detect any activity”, the “off target activity in kinome-wide protein kinase screen” value (over 350 protein kinases; listed as compound of formula I) was “little activity” and the “cytotoxicity against patient MM cells” value (patient MM cells) was “induced cytotoxicity”. For the same compound, the “tolerability in normal healthy volunteers” value [5] was “well tolerated”, the “time the concentration exceeds the PI3Kδ EC50 concentration in basophil” value ([5]; 7 day) was “at least 12 hours” and the “cytotoxicity in HuVECs” value (HuVECs) was “without associated cytotoxicity”. The “cytotoxicity against p110δ-positive MM cells” value (LB and INA-6 MM cells) was “induced cytotoxicity”.
